Reference: patent US5817668A, “S-heteroatom containing alkyl substituted-3-oxo-pyrido[1,2-A]benzimidozole-4-carboxamide derivatives useful in treating central nervous system disorders” (Ortho Pharmaceutical Corporation, priority 1997, dated 1998)
Where two headings read alike, the source gives them in different places.

How the values were obtained:
[1] = target: benzodiazepine site of the GABA-A receptor; assay: Benzodiazepine receptor binding: inhibition of 3H-flunitrazepam binding to prepared receptor membranes; conditions: read-out: GABAA Receptor Binding IC50; 3H-flunitrazepam ca. 3 nM, 10-20 min, 25 °C; >10,000 = not active
[2] = tested on: behavior suppressed by punishment (conflict) in male rats; assay: Suppression of anxiety in adult male rat (punished-licking conflict test, Vogel); assay type: in vivo; conditions: minimum effective dose, >10 = active dose not yet determined; for minimal effective dose: Rattus norvegicus
Procedure: Male rats were deprived of water for 48 hours and were deprived of food for 24 hours prior to testing. After the first 24 hours of water deprivation, they were placed in the conflict chamber for a training period; wherein, they were allowed 200 unpunished licks from a bottle containing tap water. The experiment was run the next day. At the expected time of peak activity, the animals were placed in the chamber and allowed access to tap water. […] Their first lick initiates a 3-min test session. Subsequently,every 20th lick was punished by a 0.2-s shock delivered via the stainless-steel drinking-tube.
The Wilcoxon rank-sum test (Mann-Whitney U-test) was used to test for an increase (p<0.05, 1-tailed) in the median number of shocks in drug-treatedgroups, compared to a concurrently run vehicle-treated group. The biological assay is considered to be valid if the effects of a known anxiolytic (positive control) are detected, within the same experiment.

[3] = tested on: metrazol-induced convulsions in male CD1 mice; assay: Suppression of metrazol-induced clonic convulsions in adult male mice; assay type: in vivo, mouse (male CD1); conditions: Mus musculus, 0.5 h, >30 = active dose not determined
Procedure: […] Water was not withheld except during the period of observations. […] Metrazol was dissolved in 0.9% sodium chloride solution, and its dose volume was 10 ml/kg. Animals were housed individually for observation of clonic convulsions, tonic convulsions and death for a period of 30 min. […] The biological assay was considered to be valid if the effects of a known anticonvulsant (positive control) were detected, within the same experiment. Activity was reported as percent reduction of clonic convulsions from the vehicle group.

[4] = po, read-out: Rat Conflict MED, po
[5] = ip, ip, read-out: Mouse Metrazol ED50, ip
[6] = po, po, read-out: Mouse Metrazol ED50, po
[7] = ip, read-out: Rat Conflict MED, ip

O=C1CCN2C(=C1C(=O)Nc1ccccc1F)N(CCNC(=O)c1ccccc1)c1cc(F)ccc12 [Compound 46]
IC50 [1]: 6.1 nM

COc1ccc(NC(=O)C2=C3N(CC#N)c4cc(F)ccc4N3CCC2=O)cc1 [Compound 82]
IC50 [1]: 8.55 nM
minimal effective dose [2, 4]: > 10 mg/kg
ED50 [3, 5]: < 1 mg/kg
ED50 [3, 6]: > 30 mg/kg

C#CCN1C2=C(C(=O)Nc3ccccc3F)C(=O)CCN2c2ccc(F)cc21 [Compound 85]
IC50 [1]: 0.072 nM
minimal effective dose [2, 7]: < 10 mg/kg
minimal effective dose [2, 4]: 1 mg/kg
ED50 [3, 5]: 0.006 mg/kg
ED50 [3, 6]: 1 mg/kg

CN1CCCC(N2C3=C(C(=O)Nc4c(F)cccc4F)C(=O)CCN3c3ccc(F)cc32)C1 (centres unmarked) [Compound 86]
IC50 [1]: 26.3 nM
minimal effective dose [2, 7]: 10 mg/kg
minimal effective dose [2, 4]: > 10 mg/kg
ED50 [3, 5]: > 10 mg/kg
ED50 [3, 6]: > 30 mg/kg

CC(=O)OCCN1C2=C(C(=O)Nc3ccccc3F)C(=O)CCN2c2ccc(F)cc21 [Compound 119, 7-Fluoro-1,2-dihydro-5-(2-acetoxyethyl)-3-oxo-N-(2-fluorophenyl)pyrido[1,2-a]benzimidazole-4-carboxamide]
IC50 [1]: 0.25 nM

CCOCN1C2=C(C(=O)Nc3ccccc3F)C(=O)CCN2c2c1ccc(F)c2F [Compound 128]
IC50 [1]: 126 nM
minimal effective dose [2, 4]: > 10 mg/kg
ED50 [3, 5]: ≥ 1 mg/kg
ED50 [3, 6]: > 30 mg/kg

COCCN1C2=C(C(=O)Nc3nccs3)C(=O)CCN2c2ccc(F)cc21 [Compound 140]
Rat Conflict MED, po ([2]; po): > 10 mg/kg

COCCN1C2=C(C(=O)Nc3nccs3)C(=O)CCN2c2ccc(F)cc21 [Compound 155]
Rat Conflict MED, po ([2]; po): 3 mg/kg

CCOCCN1C2=C(C(=O)Nc3ccccc3F)C(=O)CCN2c2ccc(F)cc21 [Compound 160]
IC50 [1]: 0.48 nM
minimal effective dose [2, 7]: < 10 mg/kg
minimal effective dose [2, 4]: 1 mg/kg
ED50 [3, 5]: < 1 mg/kg
ED50 [3, 6]: 0.3 mg/kg

O=C1CCN2C(=C1C(=O)Nc1ccccc1F)N(CC(O)CO)c1cc(F)ccc12 (centres unmarked) [Compound 162, 7-Fluoro-1,2-dihydro-5-[2,3-dihydroxypropyl]-3-oxo-N-(2-fluorophenyl)pyrido[1,2-a]benzimidazole-4-carboxamide]
IC50 [1]: 16 nM

C[S+]([O-])CCN1C2=C(C(=O)Nc3ccccc3F)C(=O)CCN2c2ccc(F)cc21 (centres unmarked) [Compound 183, 7-Fluoro-1,2-dihydro-5-[2-(methylsulfoxy)ethyl]-3-oxo-N-(2-fluorophenyl)pyrido[1,2-a]benzimidazole-4-carboxamide]
IC50 [1]: 6.19 nM
